biological target: T1, recombinant human NK3 receptor (Homo sapiens, UniProt P29371); assay: [3H]SR142801 competition binding assay; conditions: not given
T1 construct: expressed in transfected cells; host or cells: HEK293 cells, transient expression; membranes
T1 sequence (P29371 1-465): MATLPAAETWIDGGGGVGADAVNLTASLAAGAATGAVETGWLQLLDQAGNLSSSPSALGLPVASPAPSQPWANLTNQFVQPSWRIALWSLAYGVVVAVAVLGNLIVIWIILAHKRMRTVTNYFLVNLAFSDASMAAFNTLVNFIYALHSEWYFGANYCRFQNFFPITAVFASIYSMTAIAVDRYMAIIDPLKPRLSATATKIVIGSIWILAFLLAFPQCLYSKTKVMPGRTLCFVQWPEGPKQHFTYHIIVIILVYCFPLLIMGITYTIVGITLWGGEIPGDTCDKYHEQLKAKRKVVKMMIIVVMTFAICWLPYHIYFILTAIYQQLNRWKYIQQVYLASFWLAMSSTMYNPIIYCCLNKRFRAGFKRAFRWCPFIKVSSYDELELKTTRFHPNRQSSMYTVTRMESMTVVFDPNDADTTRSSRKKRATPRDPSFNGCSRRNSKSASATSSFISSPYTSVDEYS

| Compound | Ki [nM] |
| --- | --- |
| CN(C(=O)Oc1ccncc1)[C@@H]1CN(C(=O)C2CCN(C(=O)C3(C)CC3)CC2)C[C@H]1c1ccc(Cl)c(Cl)c1 [Example 297, {(3S,4R)-4-(3,4-Dichloro-phenyl)-1-[1-(1-methyl-cyclopropanecarbonyl)-piperidine-4-carbonyl]-pyrrolidin-3-yl}-methyl-carbamic acid pyridin-4-yl ester] | 5.9 |
| CN(C(=O)Oc1cccc(Cl)n1)[C@@H]1CN(C(=O)C2CCN(C(=O)C3(C)CC3)CC2)C[C@H]1c1ccc(Cl)c(Cl)c1 [Example 300, {(3S,4R)-4-(3,4-Dichloro-phenyl)-1-[1-(1-methyl-cyclopropanecarbonyl)-piperidine-4-carbonyl]-pyrrolidin-3-yl}-methyl-carbamic acid 6-chloro-pyridin-2-yl ester] | 2.6 |
| CN(C(=O)Oc1ccc(F)cc1)[C@@H]1CN(C(=O)C2CCN(c3ccc(C(F)(F)F)cn3)CC2)C[C@H]1c1ccc(Cl)c(Cl)c1 [Example 306, [(3S,4R)-4-(3,4-Dichloro-phenyl)-1-(5′-trifluoromethyl-3,4,5,6-tetrahydro-2H-[1,2′]bipyridinyl-4-carbonyl)-pyrrolidin-3-yl]-methyl-carbamic acid 4-fluoro-phenyl ester] | 0.7 |
| CN(C(=O)Oc1ccc(F)cc1)[C@@H]1CN(C(=O)C2CCN(c3ccc(Cl)cn3)CC2)C[C@H]1c1ccc(Cl)c(Cl)c1 [Example 308, [(3S,4R)-1-(5′-Chloro-3,4,5,6-tetrahydro-2H-[1,2′]bipyridinyl-4-carbonyl)-4-(3,4-dichloro-phenyl)-pyrrolidin-3-yl]-methyl-carbamic acid 4-fluoro-phenyl ester] | 0.2 |
| CN(C(=O)Oc1ccc(F)cc1)[C@@H]1CN(C(=O)C2CCN(c3ccc(F)cn3)CC2)C[C@H]1c1ccc(Cl)c(Cl)c1 [Example 309, [(3S,4R)-4-(3,4-Dichloro-phenyl)-1-(5′-fluoro-3,4,5,6-tetrahydro-2H-[1,2′]bipyridinyl-4-carbonyl)-pyrrolidin-3-yl]-methyl-carbamic acid 4-fluoro-phenyl ester] | 0.5 |
| CN(C(=O)Oc1ccc(F)cc1)[C@@H]1CN(C(=O)C2CCN(c3ccc(C(N)=O)cn3)CC2)C[C@H]1c1ccc(Cl)c(Cl)c1 [Example 310, [(3S,4R)-1-(5′-Carbamoyl-3,4,5,6-tetrahydro-2H-[1,2′]bipyridinyl-4-carbonyl)-4-(3,4-dichloro-phenyl)-pyrrolidin-3-yl]-methyl-carbamic acid 4-fluoro-phenyl ester] | 0.6 |
| CN(C(=O)Oc1ccc(F)cc1)[C@@H]1CN(C(=O)C2CCN(c3ccc(F)cn3)CC2)C[C@H]1c1ccc(Cl)c(F)c1 [Example 311, [(3S,4R)-4-(4-Chloro-3-fluoro-phenyl)-1-(5′-fluoro-3,4,5,6-tetrahydro-2H-[1,2′]bipyridinyl-4-carbonyl)-pyrrolidin-3-yl]-methyl-carbamic acid 4-fluoro-phenyl ester] | 0.9 |
| CN(C(=O)Oc1ccc(F)cc1)[C@@H]1CN(C(=O)C2CCN(c3ccc(Cl)cn3)CC2)C[C@H]1c1ccc(Cl)c(F)c1 [Example 312, [(3S,4R)-4-(4-Chloro-3-fluoro-phenyl)-1-(5′-chloro-3,4,5,6-tetrahydro-2H-[1,2′]bipyridinyl-4-carbonyl)-pyrrolidin-3-yl]-methyl-carbamic acid 4-fluoro-phenyl ester] | 0.4 |
| CN(C(=O)Oc1ccc(F)cc1)[C@@H]1CN(C(=O)C2CCN(c3ccc(C(F)(F)F)cn3)CC2)C[C@H]1c1ccc(Cl)c(F)c1 [Example 313, [(3S,4R)-4-(4-Chloro-3-fluoro-phenyl)-1-(5′-trifluoromethyl-3,4,5,6-tetrahydro-2H-[1,2′]bipyridinyl-4-carbonyl)-pyrrolidin-3-yl]-methyl-carbamic acid 4-fluoro-phenyl ester] | 0.9 |
| CC(=O)c1ccc(N2CCC(C(=O)N3C[C@@H](N(C)C(=O)Oc4ccc(F)cc4)[C@H](c4ccc(Cl)c(F)c4)C3)CC2)nc1 [Example 314, [(3S,4R)-1-(5′-Acetyl-3,4,5,6-tetrahydro-2H-[1,2′]bipyridinyl-4-carbonyl)-4-(4-chloro-3-fluoro-phenyl)-pyrrolidin-3-yl]-methyl-carbamic acid 4-fluoro-phenyl ester] | 0.6 |
| CN(C(=O)Oc1ccc(F)cc1)[C@@H]1CN(C(=O)C2CCN(c3ccc(F)cn3)CC2)C[C@H]1c1ccc(F)c(Cl)c1 [Example 315, [(3S,4R)-4-(3-Chloro-4-fluoro-phenyl)-1-(5′-fluoro-3,4,5,6-tetrahydro-2H-[1,2′]bipyridinyl-4-carbonyl)-pyrrolidin-3-yl]-methyl-carbamic acid 4-fluoro-phenyl ester] | 1.7 |
| CN(C(=O)Oc1ccc(F)cc1)[C@@H]1CN(C(=O)C2CCN(c3ccc(Cl)cn3)CC2)C[C@H]1c1ccc(F)c(Cl)c1 [Example 316, [(3S,4R)-4-(3-Chloro-4-fluoro-phenyl)-1-(5′-chloro-3,4,5,6-tetrahydro-2H-[1,2′]bipyridinyl-4-carbonyl)-pyrrolidin-3-yl]-methyl-carbamic acid 4-fluoro-phenyl ester] | 0.9 |
| CN(C(=O)Oc1ccc(F)cc1)[C@@H]1CN(C(=O)C2CCN(c3ccc(C(F)(F)F)cn3)CC2)C[C@H]1c1ccc(F)c(Cl)c1 [Example 317, [(3S,4R)-4-(3-Chloro-4-fluoro-phenyl)-1-(5′-trifluoromethyl-3,4,5,6-tetrahydro-2H-[1,2′]bipyridinyl-4-carbonyl)-pyrrolidin-3-yl]-methyl-carbamic acid 4-fluoro-phenyl ester] | 1.6 |
| CC(=O)c1ccc(N2CCC(C(=O)N3C[C@@H](N(C)C(=O)Oc4ccc(F)cc4)[C@H](c4ccc(F)c(Cl)c4)C3)CC2)nc1 [Example 318, [(3S,4R)-1-(5′-Acetyl-3,4,5,6-tetrahydro-2H-[1,2′]bipyridinyl-4-carbonyl)-4-(3-chloro-4-fluoro-phenyl)-pyrrolidin-3-yl]-methyl-carbamic acid 4-fluoro-phenyl ester] | 0.7 |
| CN(C(=O)Oc1ccc(F)cc1)[C@@H]1CN(C(=O)C2CCN(C(=O)[C@@H]3CC(=O)N3)CC2)C[C@H]1c1ccc(Cl)cc1 [Example 319, {(3S,4R)-4-(4-Chloro-phenyl)-1-[1-((S)-4-oxo-azetidine-2-carbonyl)-piperidine-4-carbonyl]-pyrrolidin-3-yl}-methyl-carbamic acid 4-fluoro-phenyl ester] | 10.6 |
| CN(C(=O)Oc1ccc(F)cc1)[C@@H]1CN(C(=O)C2CCN(c3ccc(O)cn3)CC2)C[C@H]1c1ccc(Cl)cc1 [Example 320, [(3S,4R)-4-(4-Chloro-phenyl)-1-(5′-hydroxy-3,4,5,6-tetrahydro-2H-[1,2′]bipyridinyl-4-carbonyl)-pyrrolidin-3-yl]-methyl-carbamic acid 4-fluoro-phenyl ester] | 6.7 |
| CC(=O)Oc1ccc(N2CCC(C(=O)N3C[C@@H](N(C)C(=O)Oc4ccc(F)cc4)[C@H](c4ccc(Cl)cc4)C3)CC2)nc1 [Example 321, Acetic acid 4-{(3R,4S)-3-(4-chloro-phenyl)-4-[(4-fluoro-phenoxycarbonyl)-methyl-amino]-pyrrolidine-1-carbonyl}-3,4,5,6-tetrahydro-2H-[1,2′]bipyridinyl-5′-yl ester] | 2.4 |

same assay, conditions: read-out: Data Ki

| Compound | Ki [nM] |
| --- | --- |
| rac-{(3R,4S)-4-(3,4-Dichloro-phenyl)-1-[1-(1-methyl-cyclopropanecarbonyl)-piperidine-4-carbonyl]-pyrrolidin-3-yl}-methyl-carbamic acid (S)-1-(tetrahydro-furan-2-yl)methyl ester and rac-{(3R,4S)-4-(3,4-Dichloro-phenyl)-1-[1-(1-methyl-cyclopropanecarbonyl)-piperidine-4-carbonyl]-pyrrolidin-3-yl}-methyl-carbamic acid (R)-1-(tetrahydro-furan-2-yl)methyl ester [Example 84] | 18.3 |

biological target: T2, NK3 tachykinin receptor (Homo sapiens, UniProt P29371); assay: not given; conditions: phase II trial; negative symptoms (depression, anhedonia, social isolation, memory and attention deficits); cited from earlier work
T2 sequence (P29371 1-465): T1 sequence (P29371 1-465)

| Compound | activity in the treatment of negative symptoms of schizophrenia |
| --- | --- |
| CC(=O)N(C)C1(c2ccccc2)CCN(CCC[C@]2(c3ccc(Cl)c(Cl)c3)CCCN(C(=O)c3ccccc3)C2)CC1 [SR 142,801, Osanetant] | inactive |

same assay, conditions: phase II trial; positive symptoms (altered behaviour, delusion, hallucinations, extreme emotions, excited motor activity, incoherent speech); cited from earlier work

| Compound | activity on positive symptoms of schizophrenia |
| --- | --- |
| CC(=O)N(C)C1(c2ccccc2)CCN(CCC[C@]2(c3ccc(Cl)c(Cl)c3)CCCN(C(=O)c3ccccc3)C2)CC1 [SR 142,801, Osanetant] | active |

From patent US9226916B2, “Pyrrolidine derivatives” (HOFFMANN-LA ROCHE INC., priority 2009, dated 2016)
